Assay results published in US20100048396A1, “METHOD, USE AND AGENT FOR PROTECTING A PLANT AGAINST PYTHIUM AND RHIZOCTONIA” (priority 2007, published 2010).

Key:
Rhizoctonia solani = assay: Protection of corn against infestation with Rhizoctonia solani (seed treatment, infested small-parcel fields); format: in vivo; conditions: corn seed treated with triticonazole 5 gai/100 kg alone; seedlings surviving (from 50) after sowing and emergence; untreated control 46
Experimental: An isolate of Rhizoctonia solani originally isolated from maize was grown on potatoe dextrose agar (PDA) at 20° C. in the dark for 14 days. A vermiculite/maize meal/distilled water mixture (2.7:1:1) was autoclaved at 121° C. for 30 minutes in poly-ethylene “autoclave” bags. Once cool, the mixture was inoculated with 40×5 mm^2 agar disks cut from the Rhizoctonia solani cultures and mixed well. The inoculum bags were sealed and then incubated for 14 days at 22° C. with 16 hours light and 8 hours dark periods. Successful growth was checked by extracting granules of vermiculate and plating on PDA. Infested soil was prepared by mixing peat: sharp washed sand (3:1), removing any large peat clumps, adding maize meal mixture (9:1) and combining the two wells.
(§1) Corn seed was either treated with a slurry comprising triticonazole and/or prochloraz in water so that the amounts indicated below were applied per 100 kg of seed, or left untreated (control). Small-parcel fields (1×2 m) were infested with Rhizoctonia solani as described above. After sowing and emergence the number of seedlings surviving (from 50) was determined.

Pythium ultimum = assay: Protection of corn against infestation with Pythium ultimum (seed treatment, infested small-parcel fields); format: in vivo; conditions: corn seed treated with triticonazole 5 gai/100 kg alone; based on a weighted 0-5 infection scale; untreated control 70
Experimental: An isolate of Pythium ultimum originally isolated from maize was grown on potatoe dex-trose agar (PDA) at 22° C. in the dark for 14 days. A vermiculate/maize meal/distilled water mixture (2.7:1:1) was autoclaved at 121° C. for 30 minutes in polyethylene “auto-clave” bags. Once cool, the mixture was inoculated with 40×5 mm^2 agar disks cut from the Pyhtium ultimum cultures and mixed well. The inoculum bags were sealed and then incubated for 14 days at 21° C. for 14 days in the dark. Successful growth was checked by extracting granules of vermiculate and plating on PDA. Infested soil was prepared by mixing peat: sharp washed sand (3:1) removing any large peat clumps, adding maize meal mixture (40:60 v/v) and combining the two well.
as §1, with “Pythium ultimum” for “Rhizoctonia solani”, “the” for “the number of”, “the disease index (based on a weighted 0-5 infection scale)” for “surviving (from 50)”

CC1(C)CC/C(=C\c2ccc(Cl)cc2)C1(O)Cn1cncn1 (centres unmarked) [Triticonazole, (E)-5-(4-chlorbenzyliden)-2,2-dimethyl-1-(1H-1,2,4-triazol-1-ylmethyl)cyclopentanol]
Percentage of plants surviving (Rhizoctonia solani): 36%
Disease index (Pythium ultimum): 71%
